Reference: publication PMC6114103, “17-DMAG inhibits the multiplication of several Babesia species and Theileria equi on in vitro cultures, and Babesia microti in mice” (International Journal for Parasitology: Drugs and Drug …, 2018)

What was measured:
B. caballi (USDA strain) = assay: in vitro multiplication inhibition assay (SYBR Green I fluorescence, 96 h), single drugs and two-drug combinations; assay type: cell-based, Babesia caballi; details: for IC50: Babesia caballi, B. caballi, 96 h, triplicate, mean ± SD, read-out: IC50 on in vitro culture of parasites; for Selectivity index MDBK: ratio IC50 MDBK to IC50 B. caballi; for Selectivity index NIH/3T3: ratio IC50 NIH/3T3 to IC50 B. caballi
Protocol: (§1) Babesia parasite cultures were maintained using a microaerophilic stationary-phase culture system ([Levy and Ristic, 1980]; [Avarzed et al., 1997]; [Igarashi et al., 1998]). Briefly, bovine Babesia parasites were grown in bovine red blood cells (RBC) in the specific complete medium for each species. The medium for B. bovis (Texas strain) contained GIT medium supplemented with 10% bovine serum, while the medium for B. bigemina (Argentina strain) and B. divergens (Germany strain) was Medium 199 and RPMI 1640 medium, respectively, supplemented with 40% bovine serum ([Rizk et al., 2016]). B. caballi (USDA strain) was grown using equine RBC in GIT medium supplemented with 10% equine serum. T. equi (USDA strain) was grown in equine RBC in M199 medium supplemented with 40% equine serum and hypoxanthine (MP Biomedicals, USA) at a final concentration of 13.6 μg/ml. All of the media included 60 U/ml penicillin G, 60 μg/ml streptomycin, and 0.15 μg/ml amphotericin B (Sigma-Aldrich, USA). The cultures were incubated at 37 °C in a humidified chamber with an atmosphere of 5% CO2, 5% O2, and 90% N2.
(§2) The assays were conducted in accordance with the protocol described previously with modification ([Guswanto et al., 2014]). Briefly, the cultures of B. bovis, B. bigemina, B. divergens, B. caballi, and T. equi with a parasitemia of 8%, 3%, 10%, 4%, and 9%, respectively, were harvested and adjusted to 1% parasitemia with fresh RBC before the inhibition assay. The 60 inner wells of a 96-well plate were used in the assay, while the peripheral wells were filled with sterile distillate water to reduce evaporation during incubation. To each well in triplicate, 2.5 μl of infected RBC (5 μl for B. divergens, B. caballi, and T. equi) was added and mixed with a culture medium containing the drug to a total volume of 100 μl. The stock solution of 17-DMAG, DA, and AV was dissolved in a culture medium at various concentrations using two-fold dilution. A culture medium containing DMSO at a final concentration of 0.2% was added to the well with infected RBC as a positive control and to the well with uninfected RBC as a negative control. Furthermore, a drug combination assay was conducted in parallel with the single drug assay at the constant ratio in accordance with the Chou–Talalay method ([Chou, 2006]). In the same plate with a single drug inhibition assay, a two-drug combination (DA+17-DMAG, DA + AV, and 17-DMAG + AV) at concentrations of 0.25 x IC50, 0.5 x IC50, IC50, 2 x IC50, and 4 x IC50 was added to the well containing infected RBC in triplicate. The plate was incubated in a humidified incubator with 5% CO2, 5% O2, and 90% N2. After 96 h, 100 μl of a lysis buffer containing SYBR Green I was added to each well. The plate was wrapped with aluminum foil to avoid direct light exposure and incubated at room temperature. After incubation for 6 h, fluorescence values were measured using a fluorescence spectrophotometer (Fluoroskan Ascent, Thermo Fisher Scientific, USA) with the excitation and emission wavelength at 485 nm and 518 nm, respectively. The fluorescence data were subtracted from the negative control and used to calculate the IC50.
(§3) The IC50 of 17-DMAG, DA, and AV was calculated from the percentage of inhibition on the in vitro multiplication of all tested species using non-linear regression (curve fit), available in GraphPad Prism (GraphPad Software Inc., USA). Combination index (CI) values for the drug combination were calculated using CompuSyn software ([Chou, 2006]). Since the chemotherapy effect is preferable at the highest inhibition, the degree of synergism was determined as the weighted average of CI values using a formula ((1 x IC50) + (2 x IC75) + (3 x IC90) + (4 x IC95))/10 ([Chou, 2006]). The differences among groups regarding the parasitemia, hematology profiles, and body weight in the B. microti–infected mouse model were analyzed using Student's t-test, available in GraphPad Prism software.

MDBK cells = assay: cytotoxicity (drug-exposure viability) assay, CCK-8; assay type: cell-based, bovine; details: for IC50: Bos taurus, MDBK, 24 h exposure, CCK-8, read-out: IC50 on cell line MDBK
Protocol: (§4) Each medium was supplemented with 10% fetal bovine serum, 0.5% penicillin/streptomycin (Gibco, Life Technologies, USA), and an additional 1% glutamine. The medium was changed every 3–4 days and incubated until approximately 80% confluent. The cells were free from mycoplasma contamination after being checked by staining with DAPI (Sigma-Aldrich, USA). The detachment of cells from the culture flask was done using TrypLE™ Express (Gibco, Life Technologies, USA) after washing two times with Dulbecco's phosphate-buffered saline (DPBS). Subsequently, the counting of viable cells was carried out using a Neubauer improved C-Chip (NanoEntek Inc., Korea) after staining with 0.4% trypan blue solution. The drug-exposure viability assay was performed in accordance with the recommendation of the Cell Counting Kit-8 (CCK-8, Dojindo, Japan). Briefly, the assay was carried out using a 96-well plate at 37 °C in a humidified incubator with 5% CO2. One hundred microliters of cells at a density of 5 × 10^4 cells/ml was seeded per well and allowed to attach to the plate for 24 h. […] The exposure of drugs was carried out for 24 h, followed by the addition of 10 μl of CCK-8. The plate was further incubated for 3 h, and the absorbance was measured at 450 nm using a microplate reader.

[1] = system: B. divergens (Germany strain); assay: in vitro multiplication inhibition assay (SYBR Green I fluorescence, 96 h), single drugs and two-drug combinations; assay type: cell-based, Babesia divergens; details: for IC50: Babesia divergens, B. divergens, 96 h, triplicate, mean ± SD, read-out: IC50 on in vitro culture of parasites; for Selectivity index MDBK: ratio IC50 MDBK to IC50 B. divergens; for Selectivity index NIH/3T3: ratio IC50 NIH/3T3 to IC50 B. divergens
Protocol: as §1, §2, §3

T. equi (USDA strain) = assay: as above; assay type: cell-based, Theileria equi; details: for IC50: Theileria equi, T. equi, 96 h, triplicate, mean ± SD, read-out: IC50 on in vitro culture of parasites; for Selectivity index MDBK: ratio IC50 MDBK to IC50 T. equi; for Selectivity index NIH/3T3: ratio IC50 NIH/3T3 to IC50 T. equi
Protocol: as §1, §2, §3

B. bovis (Texas strain) = assay: as above; assay type: cell-based, Babesia bovis; details: for IC50: Babesia bovis, in Bos taurus, B. bovis, 96 h, triplicate, mean ± SD, read-out: IC50 on in vitro culture of parasites; for Selectivity index MDBK: ratio IC50 MDBK to IC50 B. bovis; for Selectivity index NIH/3T3: ratio IC50 NIH/3T3 to IC50 B. bovis
Protocol: as §1, §2, §3

NIH/3T3 cells = assay: cytotoxicity (drug-exposure viability) assay, CCK-8; assay type: cell-based, mouse; details: for IC50: Mus musculus, NIH3T3, NIH/3T3, 24 h exposure, CCK-8, read-out: IC50 on cell line NIH/3T3
Protocol: as §4

[2] = at a concentration of 40 μM, separate assay

For `CO[C@H]1/C=C\C=C(/C)C(=O)NC2=CC(=O)C(NCCN(C)C)=C(C[C@@H](C)C[C@H](OC)[C@H](O)[C@@H](C)/C=C(\C)[C@@H]1OC(N)=O)C2=O` [17-DMAG, 17-dimethylaminoethylamino-17-demethoxygeldanamycin], the IC50 (B. caballi (USDA strain)) was 0.0885 ± 0.0096 µM, the “Selectivity index MDBK” value (B. caballi (USDA strain)) was 99 and the “Selectivity index NIH/3T3” value (B. caballi (USDA strain)) was 175. The IC50 (MDBK cells) was 8.8 ± 2 µM, the IC50 [1] was 0.184 ± 0.0032 µM and the “Selectivity index MDBK” value [1] was 48. The “Selectivity index NIH/3T3” value [1] was 84, the IC50 (T. equi (USDA strain)) was 0.308 ± 0.0072 µM and the “Selectivity index MDBK” value (T. equi (USDA strain)) was 29. The “Selectivity index NIH/3T3” value (T. equi (USDA strain)) was 50, the IC50 (B. bovis (Texas strain)) was 0.0776 ± 0.0029 µM and the “Selectivity index MDBK” value (B. bovis (Texas strain)) was 113. The “Selectivity index NIH/3T3” value (B. bovis (Texas strain)) was 200 and the IC50 (NIH/3T3 cells) was 15.5 ± 4 µM.

In the case of `O=C1C(O)=C([C@H]2CC[C@H](c3ccc(Cl)cc3)CC2)C(=O)c2ccccc21` [AV, atovaquone], the IC50 (B. caballi (USDA strain)) is reported as 0.102 ± 0.0141 µM, the “Selectivity index MDBK” value (B. caballi (USDA strain)) is reported as greater than 393 and the “Selectivity index NIH/3T3” value (B. caballi (USDA strain)) is reported as greater than 393. The IC50 (MDBK cells) was greater than 40 µM, the “inhibition on MDBK cell viability” value (MDBK cells; [2]) was “did not show any inhibition” and the IC50 [1] was 0.0134 ± 0.0014 µM. For the same molecule, the “Selectivity index MDBK” value [1] was greater than 2985, the “Selectivity index NIH/3T3” value [1] was greater than 2985 and the IC50 (T. equi (USDA strain)) was 0.095 ± 0.065 µM. For the same molecule, the “Selectivity index MDBK” value (T. equi (USDA strain)) was greater than 421, the “Selectivity index NIH/3T3” value (T. equi (USDA strain)) was greater than 421 and the IC50 (B. bovis (Texas strain)) was 0.0397 ± 0.0024 µM. For the same molecule, the “Selectivity index MDBK” value (B. bovis (Texas strain)) was greater than 1008, the “Selectivity index NIH/3T3” value (B. bovis (Texas strain)) was greater than 1008 and the IC50 (NIH/3T3 cells) was greater than 40 µM. The “inhibition on NIH/3T3 cell viability” value (NIH/3T3 cells; [2]) was “did not show any inhibition”.
